In data set [1] the test system is SMN2 mRNA. The experiment in a line: RT-qPCR splicing assay, SMN2 mRNA. The class given is cell-based, human. Conditions: Homo sapiens, canonical junction qPCR panel, Table 4; read-out: SMN2 IC50 (decrease in CJ mRNA levels). In outline:
(§1)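 Both isoforms, CJ and AJ, read by qPCR from crude lysates of treated A673 or K562 cells; 24 h, 37 °C, maximum 10 uM. Normalization: housekeeper ΔCt, then DMSO ΔΔCt.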

Data set [2] concerns HTT mRNA. The experiment in a line: RT-qPCR splicing assay, HTT mRNA canonical (CJ) and alternative (AJ) junction. Conditions: Homo sapiens; for AC50: HTT alternative junction mRNA, read-out: HTT AJ (increase in AJ mRNA, AC50). Format: cell-based, human. In outline:
as §1

For data set [3], the system named is Target C. The experiment in a line: HiBiT protein abundance assay, Target C (K562 HiBiT knock-in). The note with it: HiBiT knock-in K562 cells, 24 hours, top dose 10 μM. The class given is cell-based, human. A digest of the protocol:
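K562 HiBiT knock-in cells (10000/well) were treated 24 h at 37° C with a 10-point 3-fold dilution series (top 10 μM final, ≤0.25% DMSO). HiBiT luminescence was read after lytic LgBiT detection. Percent response used unmodified K562 and DMSO-treated knock-in controls, and IC50 came from a four-parameter fit at 50% of untreated.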

The test system of data set [4] is HTT. The data set is described as follows: HiBiT protein abundance assay, HTT (K562 HiBiT knock-in). Format: cell-based, human. The note with it: HiBiT knock-in K562 cells, 24 hours, top dose 10 μM. In outline: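 Endogenously HiBiT-tagged K562 lines were treated for 24 h at 37 °C with 10-point 3-fold dilutions (top 10 μM final, DMSO ≤0.25%). Lytic LgBiT complementation luminescence was normalized between unmodified K562 (PC) and DMSO-treated tagged cells (NC); IC50 was interpolated at 50% from a four-parameter logistic fit.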
In general terms: HiBiT is a short tag that completes a luciferase, so light tracks the accessible tagged protein.

Data set [5] relates to K562 cells. The experiment in a line: Cell Titer Glo 2.0 cell viability (toxicity) assay, K562. Conditions: 500 cells/well, 72 hours.
The mark [6] stands for this setting: HTT canonical junction mRNA, RT-qPCR, read-out: HTT CJ (decrease in CJ mRNA levels, IC50).
The mark [7] stands for this setting: canonical junction qPCR panel, Table 4, read-out: HTT IC50 (decrease in CJ mRNA levels).

The structures appear in SMILES notation. Counter-ions that a name gives are not always drawn. Like-named read-outs stand apart in the source and are kept apart here.

By IC50 is commonly meant the concentration that gives 50% inhibition. A word on the AC50: it is the concentration giving half of the maximal activity seen. In the case of `Cc1nc2cc(O)c(-c3ccc4nc(N5CCC(N)CC5)ccc4n3)cc2o1` [Compound 424], the IC50 in data set [1] was under 0.1 µM; in data set [2] (setting [6]), 1 to 10 µM; in data set [2] (setting [7]) it was 1 to 10 µM; in data set [3] it was 0.1 to 1 µM; in data set [4] it was 1 to 10 µM. Besides, the AC50 in data set [2] (RT-qPCR) is 1 to 10 µM. Moreover, the “Effect of Exemplary Compounds on Cell Viability, K562” value (from here on “Effect of Exemplary Compounds”) in data set [5] is “B (B represents 100-1000 nM)”.

`CNC1CCN(c2ccc3nc(-c4cc5oc(C)nc5cc4O)ccc3n2)CC1` [Compound 425]: the IC50 in data set [1] lay within 0.1 to 1 µM; in data set [2] (setting [6]) it was 1 to 10 µM; in data set [2] (setting [7]), 1 to 10 µM; in data set [3] it was 1 to 10 µM; in data set [4], 1 to 10 µM. Moreover, in data set [2] (RT-qPCR), the AC50 is 1 to 10 µM. For the same compound, in data set [5], the “Effect of Exemplary Compounds” value is “B (B represents 100-1000 nM)”.

Turning to `Cc1nc2c(C)c(O)c(-c3ccc4nc(N5CC[C@H](NC6CC6)C5)ncc4n3)cc2o1` [Compound 433, 6-{2-[(3S)-3-(cyclopropylamino)pyrrolidin-1-yl]pyrido[3,2-d]pyrimidin-6-yl}-2,4-dimethyl-1,3-benzoxazol-5-ol], the IC50 in data set [1], in data set [2] (setting [6]), in data set [2] (setting [7]), in data set [3] and in data set [4] was under 0.1 µM each time. Moreover, the AC50 in data set [2] (RT-qPCR) was under 0.1 µM. The “Effect of Exemplary Compounds” value in data set [5] is recorded as “B (B represents 100-1000 nM)”.

`Cc1nc2cc(O)c(-c3ccc4nc(N5CC[C@H](NC6CC6)C5)ncc4n3)cc2o1` [Compound 435, 6-{2-[(3S)-3-(cyclopropylamino)pyrrolidin-1-yl]pyrido[3,2-d]pyrimidin-6-yl}-2-methyl-1,3-benzoxazol-5-ol]: the IC50 in data set [1] is under 0.1 µM; in data set [2] (setting [6]) it was 0.1 to 1 µM; in data set [2] (setting [7]), 0.1 to 1 µM; in data set [3] it was 0.1 to 1 µM; in data set [4], 0.1 to 1 µM. In addition, the AC50 in data set [2] (RT-qPCR) lay in the range of 0.1 to 1 µM. In data set [5], the “Effect of Exemplary Compounds” value was “B (B represents 100-1000 nM)”.

Take `Cc1nc2c(C)c(O)c(-c3ccc4nc(N5CC[C@@H](NC(C)(C)C)C5)ncc4n3)cc2o1` [Compound 436]: the concentration for half-maximal inhibition (IC50) in data set [1], in data set [2] (setting [6]), in data set [2] (setting [7]), in data set [3] and in data set [4] was under 0.1 µM in each case. Further, the AC50 in data set [2] (RT-qPCR) was under 0.1 µM. The “Effect of Exemplary Compounds” value in data set [5] was “A (A represents <100 nM)”.

Regarding `Cc1nc2c(C)c(O)c(-c3ccc4nc(N5CC[C@H](NC(C)(C)C)C5)ncc4n3)cc2o1` [Compound 437], the IC50 was 0.1 to 1 µM in data set [1]; under 0.1 µM in data set [2] (setting [6]); under 0.1 µM in data set [2] (setting [7]); under 0.1 µM in data set [3]; under 0.1 µM in data set [4]. Also, the AC50 in data set [2] (RT-qPCR) is under 0.1 µM. The “Effect of Exemplary Compounds” value in data set [5] is reported as “B (B represents 100-1000 nM)”.

With `Cc1c(O)c(-c2ccc3nc(N4CC[C@@H](NC5CC5)C4)ncc3n2)cc2cn(C)nc12` [Compound 438, 5-{2-[(3R)-3-(cyclopropylamino)pyrrolidin-1-yl]pyrido[3,2-d]pyrimidin-6-yl}-2,7-dimethylindazol-6-ol], the IC50 in data set [1], in data set [2] (setting [6]), in data set [2] (setting [7]), in data set [3] and in data set [4] was under 0.1 µM in each case. The half-maximal activity concentration (AC50) in data set [2] (RT-qPCR) is under 0.1 µM. Moreover, the “Effect of Exemplary Compounds” value in data set [5] is recorded as “B (B represents 100-1000 nM)”.

For `Cc1c(O)c(-c2ccc3nc(N4CC[C@H](NC5CC5)C4)ncc3n2)cc2cn(C)nc12` [Compound 439, 5-{2-[(3S)-3-(cyclopropylamino)pyrrolidin-1-yl]pyrido[3,2-d]pyrimidin-6-yl}-2,7-dimethylindazol-6-ol], the IC50 in data set [1], in data set [2] (setting [6]), in data set [2] (setting [7]), in data set [3] and in data set [4] was under 0.1 µM each time. Besides, the AC50 in data set [2] (RT-qPCR) was under 0.1 µM. The “Effect of Exemplary Compounds” value in data set [5] is on record as “B (B represents 100-1000 nM)”.

On to `Cc1nc2c(C)c(O)c(-c3ccc4cc(N5CC[C@@H](NC6CC6)C5)ncc4n3)cc2o1` [Compound 440, 6-{6-[(3R)-3-(cyclopropylamino)pyrrolidin-1-yl]-1,7-naphthyridin-2-yl}-2,4-dimethyl-1,3-benzoxazol-5-ol], for which the IC50 in data set [1], in data set [2] (setting [6]), in data set [2] (setting [7]), in data set [3] and in data set [4] was under 0.1 µM each time. Besides, the AC50 in data set [2] (RT-qPCR) lay in the range of 0.1 to 1 µM. For the same compound, in data set [5], the “Effect of Exemplary Compounds” value was “B (B represents 100-1000 nM)”.

For the compound `Cc1nc2c(C)c(O)c(-c3ccc4cc(N5CC[C@H](NC6CC6)C5)ncc4n3)cc2o1` [Compound 441, 6-{6-[(3S)-3-(cyclopropylamino)pyrrolidin-1-yl]-1,7-naphthyridin-2-yl}-2,4-dimethyl-1,3-benzoxazol-5-ol], the IC50 in data set [1] is under 0.1 µM; in data set [2] (setting [6]) it was under 0.1 µM; in data set [2] (setting [7]) it was under 0.1 µM; in data set [3] it was 0.1 to 1 µM; in data set [4] it was 0.1 to 1 µM. Besides, in data set [2] (RT-qPCR), the AC50 lay within 0.1 to 1 µM. The “Effect of Exemplary Compounds” value in data set [5] was “B (B represents 100-1000 nM)”.

For the compound `Cn1cc2cc(-c3ccc4nc(C5CCNC6(CC6)C5)ncc4n3)c(O)cc2n1` (stereo not shown) [Compound 448, 5-(2-{4-azaspiro[2.5]octan-7-yl}pyrido[3,2-d]pyrimidin-6-yl)-2-methylindazol-6-ol], the IC50 is under 0.1 µM in data set [1]; 0.1 to 1 µM in data set [2] (setting [6]); 0.1 to 1 µM in data set [2] (setting [7]); 0.1 to 1 µM in data set [3]; 0.1 to 1 µM in data set [4]. Further, the half-maximal activity concentration (AC50) in data set [2] (RT-qPCR) fell in the range of 1 to 10 µM. Further, the “Effect of Exemplary Compounds” value in data set [5] is recorded as “C (C represents 1000-9999 nM)”.

Regarding `Cn1cc2cc(-c3ccc4cc(N5CCC(NC(C)(C)C)C5)ncc4n3)c(O)cc2n1` (stereo not shown) [Compound 449, 5-{6-[3-(tert-butylamino)pyrrolidin-1-yl]-1,7-naphthyridin-2-yl}-2-methylindazol-6-ol], the IC50 in data set [1] was under 0.1 µM; in data set [2] (setting [6]), 1 to 10 µM; in data set [2] (setting [7]), 1 to 10 µM; in data set [3], 0.1 to 1 µM; in data set [4] it was 0.1 to 1 µM. Moreover, in data set [2] (RT-qPCR), the AC50 lay in the range of 1 to 10 µM. In addition, in data set [5], the “Effect of Exemplary Compounds” value was “B (B represents 100-1000 nM)”.

With `Cc1nc2cc(O)c(-c3ccc4cc(N5CC[C@H](NC(C)(C)C)C5)ncc4n3)cc2o1` [Compound 450], the IC50 in data set [1], in data set [2] (setting [6]), in data set [2] (setting [7]), in data set [3] and in data set [4] was 1 to 10 µM each time. Besides, the AC50 in data set [2] (RT-qPCR) is 1 to 10 µM. Moreover, the “Effect of Exemplary Compounds” value in data set [5] is “C (C represents 1000-9999 nM)”.

Consider `Cc1c(O)c(-c2cc(Cl)c3cc(N4CCNCC4)cc(C)c3n2)cc2cn(C)nc12` [Compound 482, 5-[4-chloro-8-methyl-6-(piperazin-1-yl)577yrrolidi-2-yl]-2,7-dimethylindazol-6-ol hydrochloride], for which the IC50 in data set [1] is under 0.1 µM; in data set [2] (setting [6]), under 0.1 µM; in data set [2] (setting [7]), under 0.1 µM; in data set [3], 0.1 to 1 µM; in data set [4], 0.1 to 1 µM. In data set [2] (RT-qPCR), the AC50 lay in the range of 0.1 to 1 µM. Moreover, the “Effect of Exemplary Compounds” value in data set [5] was “A (A represents <100 nM)”.

Consider `Cc1cc2nc(-c3cc4cn(C)nc4c(C)c3O)cc(Cl)c2cc1N1CCNCC1` [Compound 484, 5-[4-chloro-7-methyl-6-(piperazin-1-yl)586yrrolidi-2-yl]-2,7-dimethylindazol-6-ol], for which the IC50 was under 0.1 µM in data set [1]; over 10 µM in data set [2] (setting [6]); over 10 µM in data set [2] (setting [7]); 1 to 10 µM in data set [3]; 1 to 10 µM in data set [4]. Also, the AC50 in data set [2] (RT-qPCR) is over 10 µM. Also, the “Effect of Exemplary Compounds” value in data set [5] is reported as “B (B represents 100-1000 nM)”.

As for `CNC1CCN(c2cc3c(Cl)cc(-c4cc5cn(C)nc5c(C)c4O)nc3cc2C)C1` (stereo not shown) [Compound 486, 5-{4-chloro-7-methyl-6-[3-(methylamino)pyrrolidin-1-yl]quinolin-2-yl}-2,7-dimethylindazol-6-ol], the IC50 was under 0.1 µM in data set [1]; 1 to 10 µM in data set [2] (setting [6]); 1 to 10 µM in data set [2] (setting [7]); 1 to 10 µM in data set [3]; 1 to 10 µM in data set [4]. In addition, in data set [2] (RT-qPCR), the AC50 is 1 to 10 µM. Further, in data set [5], the “Effect of Exemplary Compounds” value is reported as “B (B represents 100-1000 nM)”.

Source of the values: patent US20250092065A1, “2-(INDAZOL-5-YL)-6-(PIPERIDIN-4-YL)-1,7-NAPHTHYRIDINE DERIVATIVES AND RELATED COMPOUNDS AS MODULATORS FOR SPLICING NUCLEIC ACIDS AND FOR THE TREATMENT OF PROLIFERATIVE DISEASES” (REMIX THERAPEUTICS INC., priority 2022, published 2025).
